# Data from paper PMC5515969, “Effects of 31 FDA approved small-molecule kinase inhibitors on isolated rat liver mitochondria” (Archives of Toxicology, 2016).
# Like-named read-outs stand apart in the source and are kept apart here. Marks after values point to notes of the source that are not given here.
# Experiments:
# [1] = tested on: isolated rat liver mitochondria; experiment: Mitochondrial oxygen consumption (glutamate/malate or succinate driven, state 4 and state 3); format: biochemical; settings: for Glutamate/malate driven respiration State 3 / Glutamate/malate driven respiration State 4 / Succinate-driven respiration State 3 / Succinate-driven respiration State 4: oxygen consumption, DMSO-treated = 1; for State 3 respiration driven by succinate at 10XCmax: key: 0 indicates that the drug had no effects (negative); for State 3 respiration driven by succinate at 1XCmax: key: 0 indicates that the drug had no effects (negative)
# Procedure, shortened: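 Rat liver mitochondria (1 mg/ml protein) exposed 5 min to kinase inhibitors in 0.1% DMSO, then O2 consumption measured by Clark-type electrode with glutamate/malate or succinate (state 4), ADP added after 3 min (state 3). Rates normalized to 0.1% DMSO controls set to 1.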
# RCC I = RCC I activity in submitochondrial particles; format: biochemical, rat; design: key to RCC I at 10XCmax / RCC I at 100XCmax / RCC I at 50XCmax / RCC I at 30XCmax / RCC I at 20XCmax: activity relative to DMSO-treated controls (control set as 1 = 100%); settings: for RCC activity I: 15 min
# Procedure, shortened: (§1)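 Inhibitors preincubated 15 min with submitochondrial particles (1 mg/ml) before activity readout. RCC I (rotenone-sensitive fraction) and I/V: A340, and RCC II: A600, each every 1 min for 6 min; RCC III/IV: A550 every 10 s for 2 min. Activities relative to DMSO control set as 1.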
# RCC II = molecular target: T1, RCC II (Rattus norvegicus, UniProt P21913+Q641Z9+Q6PCT8+Q920L2); experiment: RCC II activity in submitochondrial particles; format: biochemical; design: key: activity relative to DMSO-treated controls (control set as 1 = 100%); settings: DMSO treated samples set as 1
# T1 construct: Submitochondrial particles were prepared by subjecting the intact mitochondria to three successive freeze–thaw cycles; from tissue; host or cells: rat liver mitochondria, used as submitochondrial particles
# T1 sequence (Q920L2 35-656): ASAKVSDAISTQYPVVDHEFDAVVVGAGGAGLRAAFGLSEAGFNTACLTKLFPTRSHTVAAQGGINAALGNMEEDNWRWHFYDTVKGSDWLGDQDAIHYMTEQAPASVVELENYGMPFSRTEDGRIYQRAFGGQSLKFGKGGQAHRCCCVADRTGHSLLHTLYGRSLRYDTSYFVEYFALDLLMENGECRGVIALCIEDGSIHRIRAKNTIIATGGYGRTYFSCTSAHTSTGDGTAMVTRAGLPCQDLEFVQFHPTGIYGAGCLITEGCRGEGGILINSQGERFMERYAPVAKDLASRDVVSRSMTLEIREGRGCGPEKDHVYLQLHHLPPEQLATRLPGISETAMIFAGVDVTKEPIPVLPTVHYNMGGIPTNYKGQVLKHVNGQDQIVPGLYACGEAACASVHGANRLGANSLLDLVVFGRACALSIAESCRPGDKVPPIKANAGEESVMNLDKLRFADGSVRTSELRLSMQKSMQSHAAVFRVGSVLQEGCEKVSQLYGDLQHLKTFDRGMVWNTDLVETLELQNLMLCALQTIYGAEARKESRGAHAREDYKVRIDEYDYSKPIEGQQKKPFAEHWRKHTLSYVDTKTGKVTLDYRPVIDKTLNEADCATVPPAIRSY
# T1 sequence (P21913 31-282): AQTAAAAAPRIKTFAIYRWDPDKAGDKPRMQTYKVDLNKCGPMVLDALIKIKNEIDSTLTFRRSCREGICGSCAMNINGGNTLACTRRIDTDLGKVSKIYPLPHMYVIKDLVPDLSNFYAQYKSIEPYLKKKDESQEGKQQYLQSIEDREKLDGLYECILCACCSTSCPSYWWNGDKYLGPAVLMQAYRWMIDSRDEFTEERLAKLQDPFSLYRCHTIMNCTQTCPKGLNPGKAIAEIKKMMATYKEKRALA
# T1 sequence (Q641Z9 1-169): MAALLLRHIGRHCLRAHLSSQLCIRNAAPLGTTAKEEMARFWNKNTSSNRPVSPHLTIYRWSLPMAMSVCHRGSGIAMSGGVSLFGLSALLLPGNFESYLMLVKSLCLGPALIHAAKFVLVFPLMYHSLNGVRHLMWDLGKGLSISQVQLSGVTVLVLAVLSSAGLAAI
# T1 sequence (Q6PCT8 57-159): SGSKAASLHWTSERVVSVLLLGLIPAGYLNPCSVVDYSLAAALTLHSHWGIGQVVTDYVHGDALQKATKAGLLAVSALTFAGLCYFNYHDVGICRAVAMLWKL
# Procedure, shortened: as §1
# RCC III = RCC III activity in submitochondrial particles; format: biochemical, rat; design: key to RCC III at 100XCmax: activity relative to DMSO-treated controls (control set as 1 = 100%); settings: for RCC activity III: 15 min, DMSO-treated = 100
# Procedure, shortened: as §1
# RCC V = RCC V activity in submitochondrial particles; format: biochemical, rat; settings: for RCC activity V: 15 min, DMSO-treated = 100; for RCC V at 5XCmax: key: 0 indicates that the drug had no effects (negative)
# Procedure, shortened: as §1
# [2] = tested on: isolated rat liver mitochondria; experiment: Mitochondrial inner membrane potential (MMP), Rhodamine 123; format: biochemical
# Description: Fig. 3 KI effects on mitochondrial inner membrane potential (MMP). […] In a, c, data are means and standard derivations from three separate experiments. *p < 0.05 as compared to DMSO-treated samples at the end of experiments. In b, data are means of two independent experiments
# [3] = tested on: isolated rat liver mitochondria
# [4] = cited from earlier work
# [5] = tested on: isolated rat liver mitochondria; experiment: Mitochondrial ROS production (CM-H2DCFDA)
# [6] = 1XCmax, DMSO treated samples set as 1
# [7] = 2.5XCmax, DMSO treated samples set as 1
# [8] = 5XCmax, DMSO treated samples set as 1
# [9] = 10XCmax, DMSO treated samples set as 1
# [10] = 20XCmax, DMSO treated samples set as 1
# [11] = 30XCmax, DMSO treated samples set as 1
# [12] = 50XCmax, DMSO treated samples set as 1
# [13] = 100XCmax, DMSO treated samples set as 1
compound,measurement,setting,value
Cc1cc(Nc2ncc(Cl)c(Nc3ccccc3S(=O)(=O)C(C)C)n2)c(OC(C)C)cc1C1CCNCC1 [Ceritinib],State 3 respiration driven by glutamate/malate at 1XCmax,[1]; [6],0
same,State 3 respiration driven by succinate at 1XCmax,[1]; [6],0
same,State 4 respiration driven by glutamate/malate at 1XCmax,[1]; [6],0
same,State 4 respiration driven by succinate at 1XCmax,[1]; [6],0
same,State 3 respiration driven by glutamate/malate at 2.5XCmax,[1]; [7],0
same,State 3 respiration driven by succinate at 2.5XCmax,[1]; [7],0
same,State 4 respiration driven by glutamate/malate at 2.5XCmax,[1]; [7],0
same,State 4 respiration driven by succinate at 2.5XCmax,[1]; [7],0
same,State 3 respiration driven by glutamate/malate at 5XCmax,[1]; [8],0
same,State 3 respiration driven by succinate at 5XCmax,[1]; [8],0
same,State 4 respiration driven by glutamate/malate at 5XCmax,[1]; [8],0
same,State 4 respiration driven by succinate at 5XCmax,[1]; [8],0
same,State 3 respiration driven by glutamate/malate at 10XCmax,[1]; [9],0
same,State 3 respiration driven by succinate at 10XCmax,[1]; [9],0
same,State 4 respiration driven by glutamate/malate at 10XCmax,[1]; [9],0
same,State 4 respiration driven by succinate at 10XCmax,[1]; [9],0
same,State 3 respiration driven by glutamate/malate at 20XCmax,[1]; [10],0
same,State 3 respiration driven by succinate at 20XCmax,[1]; [10],0
same,State 4 respiration driven by glutamate/malate at 20XCmax,[1]; [10],0
same,State 4 respiration driven by succinate at 20XCmax,[1]; [10],0
same,Glutamate/malate driven respiration State 3,[1]; 30-fold Cmax,0.88 ± 0.05
same,Glutamate/malate driven respiration State 4,[1]; 30-fold Cmax,1.12 ± 0.13
same,Succinate-driven respiration State 3,[1]; 30-fold Cmax,0.41 ± 0.18
same,Succinate-driven respiration State 4,[1]; 30-fold Cmax,0.70 ± 0.12
same,State 3 respiration driven by glutamate/malate at 30XCmax,[1]; [11],0
same,State 3 respiration driven by succinate at 30XCmax,[1]; [11],0.41±0.18
same,State 4 respiration driven by glutamate/malate at 30XCmax,[1]; [11],0
same,State 4 respiration driven by succinate at 30XCmax,[1]; [11],0.70±0.12
same,Glutamate/malate driven respiration State 3,[1]; 50-fold Cmax,0.55 ± 0.03
same,Glutamate/malate driven respiration State 4,[1]; 50-fold Cmax,1.21 ± 0.12
same,Succinate-driven respiration State 3,[1]; 50-fold Cmax,0.45 ± 0.08
same,Succinate-driven respiration State 4,[1]; 50-fold Cmax,0.77 ± 0.07
same,State 3 respiration driven by glutamate/malate at 50XCmax,[1]; [12],0.55±0.03
same,State 3 respiration driven by succinate at 50XCmax,[1]; [12],0.45±0.08
same,State 4 respiration driven by glutamate/malate at 50XCmax,[1]; [12],1.21±0.12
same,State 4 respiration driven by succinate at 50XCmax,[1]; [12],0.77±0.07
same,inhibition of mitochondrial oxygen consumption,[1]; 100-fold Cmax,~100%
same,Glutamate/malate driven respiration State 3,[1]; 100-fold Cmax,0.08 ± 0.02
same,Glutamate/malate driven respiration State 4,[1]; 100-fold Cmax,0.50 ± 0.06
same,Succinate-driven respiration State 3,[1]; 100-fold Cmax,0.03 ± 0.02
same,Succinate-driven respiration State 4,[1]; 100-fold Cmax,0.17 ± 0.10
same,State 3 respiration driven by glutamate/malate at 100XCmax,[1]; [13],0.08±0.02
same,State 3 respiration driven by succinate at 100XCmax,[1]; [13],0.03±0.02
same,State 4 respiration driven by glutamate/malate at 100XCmax,[1]; [13],0.50±0.06
same,State 4 respiration driven by succinate at 100XCmax,[1]; [13],0.17±0.10
same,lowest concentration significantly affecting mitochondrial oxygen consumption,[1]; tested at 1 to 100-fold Cmax,30 fold Cmax
same,RCC I at 10XCmax,RCC I; [9],0
same,RCC activity I,"RCC I; 50-fold Cmax, DMSO-treated = 100",94.04 ± 3.32 % of control
same,RCC activity I,"RCC I; 100-fold Cmax, DMSO-treated = 100",63.74 ± 13.12 % of control
same,RCC I at 100XCmax,"RCC I; 100XCmax, DMSO-treated = 100",63.74±13.12
same,RCC II at 1.0XCmax,RCC II; 1.0XCmax,0
same,RCC II at 2.5XCmax,RCC II; 2.5XCmax,0
same,RCC II at 5XCmax,RCC II; 5XCmax,0
same,RCC II at 10XCmax,RCC II; 10XCmax,0
same,RCC II at 20XCmax,RCC II; 20XCmax,0
same,RCC II at 30XCmax,RCC II; 30XCmax,0
same,RCC II at 50XCmax,RCC II; 50XCmax,0
same,RCC II at 100XCmax,RCC II; 100XCmax,69.91±10.00
same,RCC activity III,RCC III; 50-fold Cmax,103.80 ± 5.19 % of control
same,RCC activity III,RCC III; 100-fold Cmax,68.48 ± 6.59 % of control
same,RCC III at 100XCmax,RCC III; 100XCmax,68.48±6.59
same,RCC V at 5XCmax,RCC V; [8],0
same,RCC activity V,RCC V; 50-fold Cmax,71.23 ± 9.65 % of control
same,RCC V at 50XCmax,RCC V; [12],71.23±9.65
same,RCC activity V,RCC V; 100-fold Cmax,34.25 ± 2.09 % of control
same,RCC V at 100XCmax,RCC V; [13],34.25±2.09
same,lowest concentration decreasing MMP,[2],100 fold Cmax
same,MMP measured by Rhodamine 123 at 1XCmax,"[2]; 1XCmax, difference in signal between KI and DMSO treated samples at the end of experiments",0
same,MMP measured by Rhodamine 123 at 2.5XCmax,"[2]; 2.5XCmax, difference in signal between KI and DMSO treated samples at the end of experiments",0
same,MMP measured by Rhodamine 123 at 5XCmax,"[2]; 5XCmax, difference in signal between KI and DMSO treated samples at the end of experiments",0
same,MMP measured by Rhodamine 123 at 10XCmax,"[2]; 10XCmax, difference in signal between KI and DMSO treated samples at the end of experiments",0
same,MMP measured by Rhodamine 123 at 20XCmax,"[2]; 20XCmax, difference in signal between KI and DMSO treated samples at the end of experiments",0
same,MMP measured by Rhodamine 123 at 30XCmax,"[2]; 30XCmax, difference in signal between KI and DMSO treated samples at the end of experiments",0
same,MMP measured by Rhodamine 123 at 50XCmax,"[2]; 50XCmax, difference in signal between KI and DMSO treated samples at the end of experiments",0
same,MMP measured by Rhodamine 123 at 100XCmax,"[2]; 100XCmax, difference in signal between KI and DMSO treated samples at the end of experiments",4568±757*
same,effect on MMP,[2]; up to 100-fold Cmax or highest testable concentration,decrease in MMP
same,Cytochrome c release 1XCmax,"[3]; 1XCmax, positive control alamethicin treated samples",0
same,Cytochrome c release 2.5XCmax,"[3]; 2.5XCmax, positive control alamethicin treated samples",0
same,Cytochrome c release 5XCmax,"[3]; 5XCmax, positive control alamethicin treated samples",0
same,Cytochrome c release 10XCmax,"[3]; 10XCmax, positive control alamethicin treated samples",0
same,Cytochrome c release 20XCmax,"[3]; 20XCmax, positive control alamethicin treated samples",0
same,Cytochrome c release 30XCmax,"[3]; 30XCmax, positive control alamethicin treated samples",0
same,Cytochrome c release 50XCmax,"[3]; 50XCmax, positive control alamethicin treated samples",11.93±0.58 percentage of the positive control group
same,total cytochrome c leaked after treatment,"[3]; 100-fold Cmax, alamethicin = 100",33%
same,Cytochrome c release 100XCmax,"[3]; 100XCmax, positive control alamethicin treated samples",32.92±4.32 percentage of the positive control group
same,lowest concentration causing cytochrome c release,"[3]; rat, 30 min, pH 7.4",50 fold Cmax
same,Cmax,"[4]; human therapeutic Cmax at FDA recommended dosages, ref product labeling and drug approval packages at the official FDA website",1.81 µM
same,Cmax (ng or µg/ml),"[4]; human therapeutic maximal blood concentration, ref product labeling",1.01 µg/mL
same,Cmax,"[4]; read-out: Cmax at µM, human therapeutic maximal blood concentration, ref product labeling",1.81 µM
same,lowest concentration triggering ROS overproduction,[5],50 fold Cmax
same,ROS measured by CM-H2DCFDA at 1XCmax,[5]; [6],0
same,ROS measured by CM-H2DCFDA at 2.5XCmax,[5]; [7],0
same,ROS measured by CM-H2DCFDA at 5XCmax,[5]; [8],0
same,ROS measured by CM-H2DCFDA at 10XCmax,[5]; [9],0
same,ROS measured by CM-H2DCFDA at 20XCmax,[5]; [10],0
same,ROS measured by CM-H2DCFDA at 30XCmax,[5]; [11],0
same,ROS measured by CM-H2DCFDA at 50XCmax,[5]; [12],2.51±0.21
same,ROS measured by CM-H2DCFDA at 100XCmax,[5]; [13],1.93±0.49
same,effect on ROS production,[5]; highest tested concentrations,significantly ROS production
